Data: patent US7271165B2, “Rifamycin analogs and uses thereof” (priority 2003, dated 2007)
≈ marks a conversion by molar mass, not a printed value.

What was measured:
S. aureus = test: MIC assay, S. aureus; assay type: cell-based, Staphylococcus aureus
S. pneumo. = test: MIC assay, S. pneumo.; assay type: cell-based, Streptococcus pneumoniae
E. faecalis = test: MIC assay, E. faecalis; assay type: cell-based, Enterococcus faecalis
E coli = test: MIC assay, E coli; assay type: cell-based
H. flu = assay type: cell-based, H. influenza; details: H. flu

| Compound | MIC (μg/mL) S. aureus (S. aureus) [µg/mL] | MIC (μg/mL) S. pneumo. (S. pneumo.) [µg/mL] | MIC (μg/mL) E. faecalis (E. faecalis) [µg/mL] | MIC (μg/mL) E coli (E coli) [µg/mL] | MIC (μg/mL) H. flu (H. flu) [µg/mL] |
| --- | --- | --- | --- | --- | --- |
| COC1C=COC2(C)Oc3c(C)c(O)c4c(=O)c(c5oc6cc(N7CCC(N)CC7)cc(O)c6nc-5c4c3C2=O)NC(=O)C(C)=CC=CC(C)C(O)C(C)C(O)C(C)C(O)C1C (stereo not shown) [Compound 39, 25-O-deacetyl-3′-hydroxy-5′-[4-amino-1-piperidinyl]benzoxazinorifamycin] | 0.03 (≈ 35 nM) | 0.001 (≈ 1.17 nM) | 2 (≈ 2330 nM) | >8 | 0.25 (≈ 292 nM) |
| COCCOC(=O)NC1CCN(c2cc(O)c3nc4c5c6c7c(C)c(O)c5c(=O)c(c-4oc3c2)NC(=O)C(C)=CC=CC(C)C(O)C(C)C(O)C(C)C(OC(C)=O)C(C)C(OC)C=COC(C)(O7)C6=O)CC1 (stereo not shown) [Compound 41, 3′-hydroxy-5′-[4-methoxyethylcarbamyl-1-piperidinyl]benzoxazinorifamycin] | 0.25 (≈ 250 nM) | 0.0005 (≈ 0.499 nM) | >8 | >8 | 2 (≈ 2000 nM) |
| COC1C=COC2(C)Oc3c(C)c(O)c4c(=O)c(c5oc6cc(N7CCC(NC(C)=O)CC7)cc(O)c6nc-5c4c3C2=O)NC(=O)C(C)=CC=CC(C)C(O)C(C)C(O)C(C)C(O)C1C (stereo not shown) [Compound 43, 25-O-deacetyl-3′-hydroxy-5′-[4-acetamide-1-piperidinyl]benzoxazinorifamycin] | 0.03 (≈ 33.4 nM) | 0.002 (≈ 2.22 nM) | 2 (≈ 2220 nM) | >8 | 0.5 (≈ 556 nM) |
| COC1C=COC2(C)Oc3c(C)c(O)c4c(=O)c(c5oc6cc(N7CCC(NC(C)=O)CC7)cc(O)c6nc-5c4c3C2=O)NC(=O)C(C)=CC=CC(C)C(O)C(C)C(O)C(C)C(OC(C)=O)C1C (stereo not shown) [Compound 44] | 0.06 (≈ 63.8 nM) | 0.008 (≈ 8.5 nM) | 2 (≈ 2130 nM) | >8 | 0.25 (≈ 266 nM) |
| COC1C=COC2(C)Oc3c(C)c(O)c4c(=O)c(c5oc6cc(N7CCC(NC(=O)SC)CC7)cc(O)c6nc-5c4c3C2=O)NC(=O)C(C)=CC=CC(C)C(O)C(C)C(O)C(C)C(OC(C)=O)C1C (stereo not shown) [Compound 45, 3′-hydroxy-5′-[4-S-methylthiocarbamyl-1-piperidinyl]benzoxazinorifamycin] | 0.015 (≈ 15.4 nM) | 0.001 (≈ 1.03 nM) | 4 (≈ 4110 nM) | 8 (≈ 8220 nM) | 0.5 (≈ 514 nM) |
| COC1C=COC2(C)Oc3c(C)c(O)c4c(=O)c(c5oc6cc(N7CC8CCCN(C(C)=O)C8C7)cc(O)c6nc-5c4c3C2=O)NC(=O)C(C)=CC=CC(C)C(O)C(C)C(O)C(C)C(O)C1C [Compound 46, 25-O-deacetyl-3′-hydroxy-5′-[1-acetyl-(4aR,7aR)-octahydro-6H-pyrrolo[3,4-b]pyridin-6-yl]benzoxazinorifamycin] | 0.004 (≈ 4.32 nM) | 0.00006 (≈ 0.0649 nM) | 2 (≈ 2160 nM) | >8 | 0.5 (≈ 541 nM) |
| COC1C=COC2(C)Oc3c(C)c(O)c4c(=O)c(c5oc6cc(N7CC8CCCN(C(C)=O)C8C7)cc(O)c6nc-5c4c3C2=O)NC(=O)C(C)=CC=CC(C)C(O)C(C)C(O)C(C)C(OC(C)=O)C1C [Compound 47, 3′-hydroxy-5′-[1-acetyl-(4aR,7aR)-octahydro-6H-pyrrolo[3,4-b]pyridin-6-yl]benzoxazinorifamycin] | 0.008 (≈ 8.27 nM) | 0.002 (≈ 2.07 nM) | 1 (≈ 1030 nM) | >8 | 0.25 (≈ 259 nM) |
| COC1C=COC2(C)Oc3c(C)c(O)c4c(=O)c(c5oc6cc(N7CCC(NC(=O)OC(C)(C)C)CC7)cc(O)c6nc-5c4c3C2=O)NC(=O)C(C)=CC=CC(C)C(O)C(C)C(O)C(C)C(OC(C)=O)C1C (stereo not shown) [Compound 48] | 0.008 (≈ 8.01 nM) | 0.00025 (≈ 0.25 nM) | 2 (≈ 2000 nM) | >8 | 1 (≈ 1000 nM) |
